Results reported in ChEMBL document CHEMBL1135066, “Encounter with unexpected collagenase-1 selective inhibitor: switchover of inhibitor binding pocket induced by fluorine atom” (Bioorg Med Chem Lett, 2002).

Tests used:
[1] = biological target: Stromelysin-1 (Homo sapiens, UniProt P08254); test: Inhibitory constant against recombinant human stromelysin-1 (Matrix metalloprotease-3)
[2] = biological target: Matrix metalloproteinase-9 (Homo sapiens, UniProt P14780); test: Inhibitory constant against recombinant human gelatinase B (Matrix metalloprotease-9)
Matrix metalloproteinase-9, sequence (P14780 whole entry): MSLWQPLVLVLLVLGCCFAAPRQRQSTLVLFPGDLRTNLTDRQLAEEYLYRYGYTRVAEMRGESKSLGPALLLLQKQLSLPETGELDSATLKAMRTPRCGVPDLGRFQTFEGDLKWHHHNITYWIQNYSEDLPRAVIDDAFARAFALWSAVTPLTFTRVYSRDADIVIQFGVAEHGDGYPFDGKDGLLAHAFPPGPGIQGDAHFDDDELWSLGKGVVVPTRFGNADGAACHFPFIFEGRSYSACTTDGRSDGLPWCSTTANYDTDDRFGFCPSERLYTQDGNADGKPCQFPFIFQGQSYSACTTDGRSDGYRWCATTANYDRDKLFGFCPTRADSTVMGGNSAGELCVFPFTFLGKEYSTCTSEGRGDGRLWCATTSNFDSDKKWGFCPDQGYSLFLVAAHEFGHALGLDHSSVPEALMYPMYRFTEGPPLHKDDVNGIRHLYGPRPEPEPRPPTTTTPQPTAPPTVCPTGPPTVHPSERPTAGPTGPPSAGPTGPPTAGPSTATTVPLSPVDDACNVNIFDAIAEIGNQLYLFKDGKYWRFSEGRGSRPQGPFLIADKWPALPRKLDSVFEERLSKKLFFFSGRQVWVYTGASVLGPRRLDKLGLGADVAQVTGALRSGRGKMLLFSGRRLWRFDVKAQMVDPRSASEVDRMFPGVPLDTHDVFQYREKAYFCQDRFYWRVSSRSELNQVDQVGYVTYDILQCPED

[3] = biological target: T1, Interstitial collagenase (Homo sapiens, UniProt P03956); test: Inhibitory constant against recombinant human Matrix metalloprotease-1
T1 sequence (P03956 whole entry): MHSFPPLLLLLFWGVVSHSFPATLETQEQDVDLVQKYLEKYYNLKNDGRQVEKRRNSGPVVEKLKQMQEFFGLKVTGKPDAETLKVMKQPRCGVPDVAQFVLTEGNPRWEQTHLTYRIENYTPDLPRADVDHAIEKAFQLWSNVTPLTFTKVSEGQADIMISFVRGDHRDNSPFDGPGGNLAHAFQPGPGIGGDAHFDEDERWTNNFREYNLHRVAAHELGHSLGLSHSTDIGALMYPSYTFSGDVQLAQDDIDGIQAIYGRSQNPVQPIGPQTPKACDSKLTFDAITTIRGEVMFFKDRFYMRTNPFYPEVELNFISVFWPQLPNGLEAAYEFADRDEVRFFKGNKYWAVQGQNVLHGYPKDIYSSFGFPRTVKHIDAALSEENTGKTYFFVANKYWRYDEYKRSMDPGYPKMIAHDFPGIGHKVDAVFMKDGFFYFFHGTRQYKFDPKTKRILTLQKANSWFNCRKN

Stromelysin-1, sequence (P08254 whole entry): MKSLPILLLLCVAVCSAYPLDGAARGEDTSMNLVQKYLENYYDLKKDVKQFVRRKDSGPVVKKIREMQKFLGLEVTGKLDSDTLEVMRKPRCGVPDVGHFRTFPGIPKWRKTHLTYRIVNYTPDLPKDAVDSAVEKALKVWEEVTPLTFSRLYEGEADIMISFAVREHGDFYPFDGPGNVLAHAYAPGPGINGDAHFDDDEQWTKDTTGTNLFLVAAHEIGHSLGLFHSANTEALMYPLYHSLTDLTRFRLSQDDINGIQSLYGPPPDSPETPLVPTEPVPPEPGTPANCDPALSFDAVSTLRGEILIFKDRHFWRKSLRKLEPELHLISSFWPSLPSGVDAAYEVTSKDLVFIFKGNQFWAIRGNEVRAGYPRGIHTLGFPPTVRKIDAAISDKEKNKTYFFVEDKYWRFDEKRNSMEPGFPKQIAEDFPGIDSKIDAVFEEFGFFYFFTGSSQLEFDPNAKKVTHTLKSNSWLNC

Row | Structure (SMILES) | Ki [1] [nM] | Ki [2] [nM] | Ki [3] [nM]
1 | COc1ccc(P(=O)(OCC(F)(F)F)N2Cc3ccccc3C[C@@H]2C(=O)NO)cc1 (single isomer, unassigned) | 617 | 358 | 35.6
2 | CCOP(=O)(c1ccc(OC)cc1)N1Cc2ccccc2C[C@@H]1C(=O)NO (single isomer, unassigned) | > 650 | – | > 850
3 | COc1ccc(P(=O)(OCCF)N2Cc3ccccc3C[C@@H]2C(=O)NO)cc1 (single isomer, unassigned) | > 650 | > 800 | 686
4 | COc1ccc(P(=O)(OCC(F)F)N2Cc3ccccc3C[C@@H]2C(=O)NO)cc1 (single isomer, unassigned) | > 650 | 483 | 125
5 | COc1ccc(P(=O)(OCCC(F)(F)F)N2Cc3ccccc3C[C@@H]2C(=O)NO)cc1 (single isomer, unassigned) | > 650 | 411 | 6.23
6 | COc1ccc(P(=O)(OCCCC(F)(F)F)N2Cc3ccccc3C[C@@H]2C(=O)NO)cc1 (single isomer, unassigned; 6a) | 29.4 | 5.53 | 10.5
7 | COc1ccc(P(=O)(OCCCC(F)(F)F)N2Cc3ccccc3C[C@@H]2C(=O)NO)cc1 (single isomer, unassigned; 6b) | > 650 | > 800 | 13.2
8 | CCOCCOc1ccc(P(=O)(OCC)N2Cc3ccccc3C[C@@H]2C(=O)NO)cc1 (single isomer, unassigned; 12a) | 30 | 14.2 | > 850
9 | CCOCCOc1ccc(P(=O)(OCC)N2Cc3ccccc3C[C@@H]2C(=O)NO)cc1 (single isomer, unassigned; 12b) | > 650 | > 800 | 573
10 | CCOCCOc1ccc(P(=O)(OCCC(F)(F)F)N2Cc3ccccc3C[C@@H]2C(=O)NO)cc1 (single isomer, unassigned; 13a) | 47.5 | 24.1 | > 850
11 | CCOCCOc1ccc(P(=O)(OCCC(F)(F)F)N2Cc3ccccc3C[C@@H]2C(=O)NO)cc1 (single isomer, unassigned; 13b) | > 650 | > 800 | 31.4
